These are literature values, as cited in article PMC12356143 (RSC Medicinal Chemistry, 2025).

Broadly, the IC50 is the midpoint of a concentration-inhibition curve.

For data set [1], the system named is FIPV M^pro. The note with it: literature value; cited from earlier work.
Data set [2] has as its system M^pro WT. The conditions noted are these: literature value; cited from earlier work.

For the molecule `CC(C)CC(NC(=O)OCc1ccccc1)C(=O)NC(CC1CCNC1=O)C(O)S(=O)(=O)O` (stereo not shown) [GC376], in data set [1], the IC50 was 130 ± 20 nM.
In the case of `COc1cccc2[nH]c(C(=O)NC(CC3CC3)C(=O)NC(CC3CCNC3=O)C(O)S(=O)(=O)O)cc12` (stereo not shown) [compound 4], the IC50 in data set [1] is 60 ± 20 nM.
In the case of `O=C(NC(CC1CC1)C(=O)NC(CC1CCNC1=O)C(O)S(=O)(=O)O)OCCc1cccc(Cl)c1` (stereo not shown) [compound 5], in data set [1], the IC50 was 50 ± 20 nM.
For the molecule 2-Abz-SVTLQ↓SGY^(NO2)R-OH, in data set [2], the “K M” value is 80 × 10^−6 (lit. [10]) M and the k cat is 2.25 ± 0.1 (lit. [10]) s^−1.
Consider “Dabcyl-KTSAVLQ↓SGFRKME(Edans)-NH2 [Dabcyl-KTSAVLQ↓S GFRKME(Edans)-NH2]”, for which, in data set [2], the “K M” value is 4.6 × 10^−6 (lit. [23]) M and the k cat is 0.29 ± 0.03 (lit. [23]) s^−1.
